The record followed here is patent EP4473972A1, “COMBINATIONS COMPRISING AN ATR INHIBITOR WITH SYNERGISTIC EFFECT AGAINST GLIOMAS” (Eberhard-Karls-Universität Tübingen, priority 2023, dated 2024).

In this test the test system is LN229 and LNZ308 cells. In words: DigiWest Multiplex Protein Analysis, across both cell lines. It is filed as cell-based, human. Conditions: 72 h. The protocol: After 72 h of AZD6738 treatment, the inventors detached and counted the cells and subsequently snap froze them in liquid nitrogen. For protein preparation, they kept the cells on ice and added 20-30 µL of lysis buffer (LDS Lysis Buffer (Life Technologies, Carlsbad, CA, USA), supplemented with reducing agent (Thermo Fisher Scientific, Waltham, MA, USA) and protease- (Roche Diagnostics GmbH, Mannheim, Germany) and phosphatase-inhibitor (Roche)). Proteins were denatured by heating to 95°C for 10 min before the lysates were transferred to QiaShredder Eppendorf tubes (Eppendorf, Hamburg, Germany). After centrifugation (16,000g, 5 min, RT), eluates were stored at -80°C until further use. Protein quantification was performed using in-gel staining. 1 µL of each original lysate was diluted 1:10 (v/v) in lysis buffer. The respective aliquots were denatured for 10 mins at 70°C and 10 µL were run in a NuPAGE 4-12% Bis-Tris precast gel (Thermo Fisher Scientific) according to the manufacturer's instructions. The gel was washed with water and proteins were stained with BlueBandit (VWR, Darmstadt, Germany) for 1 h. The gel was de-stained over night with ddH2O before detection on a LI-COR (LI-COR, Bad Homburg, Germany) instrument. Analysis and protein quantification was performed using ImageStudio.
The DigiWest analysis was performed as described in the art. In brief, the inventors loaded 10 µg of cellular protein on an SDS-polyacrylamide gel and size-separated them using the commercial NuPAGE system (Life Technologies). Size-separated proteins were blotted onto a PVDF membrane and biotinylated on the membrane using NHS-PEG12-Biotin (50 µM) in PBST for 1 h. After drying of the membrane, the samples lanes were cut into 96 strips of 0.5 mm width using an automated cutting plotter (Silhouette America, West Orem, UT, USA) each corresponding to a defined molecular weight fraction. Each of the strips was placed in one well of a 96-well plate and 10 µl elution buffer (8 M urea, 1% Triton-X100 in 100 mM Tris-HCl pH 9.5) was added. The eluted proteins were diluted with 90 µl of dilution buffer (5% BSA in PBS, 0.02% sodium azide, 0.05% Tween-20) and each of the protein fractions was incubated with 1 distinct magnetic color-coded bead population (Luminex, Austin, USA) coated with neutravidin. The biotinylated proteins bind to the neutravidin beads such that each bead color represents proteins of one specific molecular weight fraction. All 96 protein loaded bead populations were mixed resulting in reconstitution of the original lane. […] Beads were washed twice prior to readout on a Luminex FlexMAP 3D.
For quantification of the antibody specific signals, we used the DigiWest Analyzer software; it automatically identifies peaks of appropriate molecular weight and calculates the peak area. […]

Take `C[C@@H]1COCCN1c1cc(C2([S@](C)(=N)=O)CC2)nc(-c2cc[nH]c3nccc2-3)n1` [AZD6738, ceralasertib]: for the setting “across both cell lines”, the NF-κB result was “significant upregulation”; the “markers for ATR target engagement such as pATR, Chk2, and Ku80” value was “significant reduction”. Under “both cell lines”, the “Cleaved PARP” value is “upregulated” and the pH2A.X entry was “Upregulation”.
